Activity calls are given as the source filed them. No cut-off for these calls is given here.
Experiments:
[1] = target: T1, Protein O-GlcNAcase (Homo sapiens, UniProt O60502); assay: Inhibition of human recombinant OGA pretreated for 20 mins followed by 4-Methylumbelliferyl N-acetyl-(3-D-glucosaminide substrate addition by fluorometer
T1 sequence (O60502 whole entry): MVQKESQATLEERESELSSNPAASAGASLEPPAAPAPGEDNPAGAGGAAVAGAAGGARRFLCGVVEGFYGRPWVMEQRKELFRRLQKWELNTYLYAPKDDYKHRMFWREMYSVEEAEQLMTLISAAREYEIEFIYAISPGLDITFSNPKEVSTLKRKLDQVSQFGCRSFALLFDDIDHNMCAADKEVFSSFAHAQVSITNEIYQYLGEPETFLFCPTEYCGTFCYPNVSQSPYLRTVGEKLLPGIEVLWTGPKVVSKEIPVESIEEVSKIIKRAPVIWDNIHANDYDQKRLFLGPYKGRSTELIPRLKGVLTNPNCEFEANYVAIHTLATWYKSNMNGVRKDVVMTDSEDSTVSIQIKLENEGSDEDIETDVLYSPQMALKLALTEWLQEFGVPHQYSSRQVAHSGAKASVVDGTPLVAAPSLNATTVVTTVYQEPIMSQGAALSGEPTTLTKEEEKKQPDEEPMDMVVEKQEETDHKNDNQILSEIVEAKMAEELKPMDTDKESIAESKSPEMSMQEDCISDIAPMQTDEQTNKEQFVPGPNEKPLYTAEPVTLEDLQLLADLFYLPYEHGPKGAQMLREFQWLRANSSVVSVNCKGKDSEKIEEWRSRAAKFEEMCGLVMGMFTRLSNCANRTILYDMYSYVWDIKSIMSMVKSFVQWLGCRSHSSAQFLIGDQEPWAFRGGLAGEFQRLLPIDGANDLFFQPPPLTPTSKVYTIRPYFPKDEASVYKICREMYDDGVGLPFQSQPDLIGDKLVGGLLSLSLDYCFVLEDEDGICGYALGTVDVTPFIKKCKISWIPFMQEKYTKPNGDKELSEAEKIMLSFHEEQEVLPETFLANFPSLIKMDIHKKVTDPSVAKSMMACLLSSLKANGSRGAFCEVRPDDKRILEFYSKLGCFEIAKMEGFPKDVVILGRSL

[2] = AUClast in ICR mouse brain at 50 mg/kg, ip after 24 hrs by LC-MS/MS analysis; assay type: ADME, organism-based; design: dose 50 mg/kg, time 24 hrs, route ip
[3] = target: T2, Hexosaminidase D (Homo sapiens) (UniProt Q8WVB3); assay: Inhibition of human recombinant beta-hexosaminidase at 10 uM pretreated with compound followed by 4-nitrophenyl Nacetyl-beta-D-glucosaminide substrate addition by fluorometer
T2 sequence (whole entry): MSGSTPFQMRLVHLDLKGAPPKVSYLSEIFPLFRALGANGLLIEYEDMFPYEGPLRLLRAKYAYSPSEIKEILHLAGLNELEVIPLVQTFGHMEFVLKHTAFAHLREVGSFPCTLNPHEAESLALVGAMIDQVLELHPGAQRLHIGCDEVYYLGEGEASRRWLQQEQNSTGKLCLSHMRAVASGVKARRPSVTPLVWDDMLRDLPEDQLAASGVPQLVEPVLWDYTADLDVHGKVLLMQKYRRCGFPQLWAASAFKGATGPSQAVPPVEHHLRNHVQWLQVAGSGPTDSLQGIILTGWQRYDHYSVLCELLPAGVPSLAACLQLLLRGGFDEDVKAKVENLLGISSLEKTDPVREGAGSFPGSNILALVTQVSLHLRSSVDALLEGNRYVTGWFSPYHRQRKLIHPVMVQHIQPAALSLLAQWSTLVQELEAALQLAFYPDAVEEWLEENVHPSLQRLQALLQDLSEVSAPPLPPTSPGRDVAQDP

[4] = Ratio of drug level in ICR mouse brain to plasma at 50 mg/kg, ip after 24 hrs by LC-MS/MS analysis; assay type: ADME, organism-based; details: brain and plasma, read-out: BPR
[5] = AUClast in ICR mouse plasma at 50 mg/kg, ip after 24 hrs by LC-MS/MS analysis; assay type: ADME, organism-based; design: dose 50 mg/kg, time 24 hrs, route ip
[6] = Cytotoxicity against mouse HT-22 cells assessed as cell viability at 10 uM after 18 hrs by MTT assay; assay type: toxicity, cell-based; details: read-out: Activity
[7] = system: Brain; assay: Anti-alzheimer activity in mouse model assessed as decrease in amyloid beta level in brain at 50 mg/kg, ip for 3 days by ELISA relative to control; assay type: functional; details: 72 h, time 3 day
[8] = system: Mus musculus; assay: Neuroprotective activity against amyloid beta (1 to 42)-induced cognitive impairement in ICR mouse assessed as […] spontaneous alteration at 50 mg/kg, ip for 3 days by Y-maze test; assay type: functional, organism-based; details: time 3.0 day
[9] = species on record: Mus musculus; details: ICR, dose 50.0 mg/kg, route ip, time 3.0 day
[10] = system: Brain; assay: Anti-alzheimer activity in mouse model assessed as decrease in amyloid beta level in brain at 20 mg/kg, ip for 3 days by ELISA relative to control; assay type: functional; details: 72 h, time 3 day
[11] = Half life in ICR mouse plasma at 20 mg/kg, ip after 24 hrs by LC-MS/MS analysis; assay type: ADME, organism-based
[12] = AUCinfinity in ICR mouse plasma at 20 mg/kg, ip after 24 hrs by LC-MS/MS analysis; assay type: ADME, organism-based; design: time 24 hrs, dose 20 mg/kg, route ip
[13] = system: Brain; assay: Anti-alzheimer activity in mouse model assessed as decrease in amyloid beta level in brain at 2 mg/kg, ip for 3 days by ELISA relative to control; assay type: functional; details: 72 h, time 3 day
[14] = AUClast in ICR mouse brain at 20 mg/kg, ip after 24 hrs by LC-MS/MS analysis; assay type: ADME, organism-based; design: time 24 hrs, dose 20 mg/kg, route ip
[15] = Cmax in ICR mouse plasma at 20 mg/kg, ip after 24 hrs by LC-MS/MS analysis; assay type: ADME, organism-based; design: dose 20 mg/kg, time 24 hrs, route ip
[16] = Tmax in ICR mouse plasma at 20 mg/kg, ip after 24 hrs by LC-MS/MS analysis; assay type: ADME, organism-based
[17] = Ratio of drug level in ICR mouse brain to plasma at 20 mg/kg, ip after 24 hrs by LC-MS/MS analysis; assay type: ADME, organism-based; details: brain and plasma, read-out: BPR
[18] = AUClast in ICR mouse plasma at 20 mg/kg, ip after 24 hrs by LC-MS/MS analysis; assay type: ADME, organism-based; design: dose 20 mg/kg, time 24 hrs, route ip
[19] = AUCt in ICR mouse plasma at 20 mg/kg, ip after 24 hrs by LC-MS/MS analysis; assay type: ADME, organism-based; design: time 24 hrs, dose 20 mg/kg, route ip
[20] = system: Mus musculus; assay: Neuroprotective activity against amyloid beta (1 to 42)-induced cognitive impairement in ICR mouse assessed as spontaneous alteration at 20 mg/kg, ip for 3 days by Y-maze test; assay type: functional, organism-based; details: time 3.0 day
[21] = system: Mus musculus; assay: In vivo inhibition of OGA in amyloid-beta-induced ICR mouse assessed as decrease in 4-MUF level at 2 to 20 mg/kg, ip for 3 days by fluorescence analysis; assay type: functional, organism-based; details: dose 2-20 mg/kg, time 3.0 day

| Compound | IC50 [1] [nM] | inhibition [3] [%] | viability at 18 h, 10 µM [6] [%] | also measured |
| --- | --- | --- | --- | --- |
| CC(=O)Nc1ncc(CN2CCCC(C(=O)Nc3ccccc3)C2)s1 (centres undefined) | 450 |  |  |  |
| CC(=O)Nc1ncc(CN2CCN(CC(=O)Nc3ccc(Cl)cc3)CC2C)s1 (centres undefined) |  | 92.4 | 111 | inhibition in vivo at 20 mg/kg [10]: 71.8%; half-life [11]: 91.8 min; AUC(0-inf) [12]: 5210 ng·h/mL; inhibition in vivo at 2 mg/kg [13]: 42%; AUC(0-t) at 24 h [14]: 590 ng·h/mL; Cmax [15]: 3200 ng/mL; Tmax [16]: 21.6 min; Kp at 24 h [17]: 0.2; AUC(0-t) at 24 h [18]: 2960 ng·h/mL; AUC(0-t) at 24 h [19]: 4980 ng·h/mL; Activity [20]: Active; inhibition [21]: Active |
| CC(=O)Nc1ncc(CN2CCN(CC(=O)Nc3ccc(Cc4ccccc4)cc3)CC2C)s1 (centres undefined) |  | 106 | 136 |  |
| CC(=O)Nc1ncc(CN2CCN(CC(=O)Nc3ccc(N4CCN(C(C)=O)CC4)cc3)CC2C)s1 (centres undefined) |  | 73.5 | 94.4 |  |
| CC(=O)Nc1ncc(CN2CCC(C(=O)Nc3ccc(C)cc3)CC2)s1 | 300 |  |  |  |
| COc1ccc(CNC(=O)C=C2CCN(Cc3cnc(NC(C)=O)s3)CC2)cc1 |  | 89.6 | 109 |  |
| CC(=O)Nc1ncc(CN2CCN(CC(=O)NC3CCCCC3)CC2C)s1 (centres undefined) |  | 101 | 123 |  |

Further lines, with some results ahead:

| IC50 [1] [nM] | inhibition [3] [%] | Compound | viability at 18 h, 10 µM [6] [%] | also measured |
| --- | --- | --- | --- | --- |
|  | 91.6 | CCNC1=N[C@@H]2[C@@H](O)[C@H](O)[C@@H](CO)O[C@@H]2S1 | 95.9 | AUC(0-t) at 24 h [2]: 590 ng·h/mL; Kp at 24 h [4]: 0.07; AUC(0-t) at 24 h [5]: 10000 ng·h/mL; inhibition in vivo at 50 mg/kg [7]: 62.8%; Activity [8]: Active; inhibition [9]: Active |
| 230 |  | CC(=O)Nc1ncc(CN2CCCC(C(=O)NC3CCCCC3)C2)s1 (centres undefined) |  |  |
|  | 103 | CC(=O)Nc1ncc(CN2CCN(CC(=O)Nc3ccccc3)CC2C)s1 (centres undefined) | 98.6 |  |
|  | 92.5 | CC(=O)Nc1ncc(CN2CCCC(C(=O)Nc3ccc(F)cc3)C2)s1 (centres undefined) | 120 |  |
|  | 7.6 | CC(=O)N[C@H]1/C(=N\OC(=O)Nc2ccccc2)O[C@H](CO)[C@@H](O)[C@@H]1O | 102 |  |
| 1400 |  | CC(=O)Nc1ncc(CN2CCN(CC(=O)Nc3ccccn3)CC2)s1 |  |  |
| 160 |  | CC(=O)Nc1ncc(CN2CCC(C(=O)Nc3ccc(F)cc3)CC2)s1 |  |  |
| 280 |  | CC(=O)Nc1ncc(CN2CCC(=CC(=O)NC3CCCCC3)CC2)s1 |  |  |
|  | 101 | CC(=O)Nc1ncc(CN2CCN(CC(=O)Nc3ccc(Cc4ccccc4)cc3)CC2)s1 | 140 |  |

Reference: ChEMBL document CHEMBL5113406, “Structure-based discovery and development of novel O-GlcNAcase inhibitors for the treatment of Alzheimer's disease” (Eur J Med Chem, 2022)
